Measurements from US20250270394A1, “CYCLODEXTRIN INCORPORATED SILICONE MATERIALS AND THEIR USE AS CARRIERS FOR ACTIVES” (WACKER CHEMIE AG, priority 2022, published 2025).
Like-named read-outs stand apart in the source and are kept apart here.

Legend:
[1] = Homogeneity of cured silicone elastomer incorporating the cyclodextrin; type: physicochemical; details: hydrosilylation-cured PDMS elastomer, procedure analogous to CH95-70
Excerpt: 0.802 g (0.304 mmol) CH70, dimethylvinylsilyl-β-cyclodextrin, and 52.0 g of a silicon hydride terminated polydimethylsiloxane fluid with a viscosity of approx. 1000 mPa·s, are placed in a suitable plastic cup with a lid along with a magnetic stir bar. The cup is blanketed with nitrogen gas and then closed to maintain an inert atmosphere while stirring. The materials are stirred until the cyclodextrin is fully dissolved. To this solution, 22.9 g of a vinyl terminated polydimethylsiloxane fluid with a viscosity of approx. 100,000 mPa·s, are added and the contents of the plastic cup are hand-mixed with a stirring rod. 0.0757 g of a platinum catalyst solution, divinyl tetramethyl disiloxane platinum complex diluted in vinyl terminated polysiloxane (1% w/w Pt content), are added to the mixture and hand-mixed, followed by further mixing in a FlackTek, Inc. Speedmixer™, model DAC 1100.2 VAC, at 1250 rpm for 1 minute under vacuum (95 mbar pressure, to degas the mixture).
The composition is then placed into a “plate and frame” mold lined with a suitable release liner. The composition and mold are put into an oven preheated at 80° C. for 1 h to cure into a rubber slab produced are approximately 6 in X 6 in X 0.072 in. The cured elastomer specimen is clear and colorless. […]

[2] = Solubility of silylated cyclodextrins in silicone fluid BELSIL DM 5
Description: Such a homogneous mixture can also be formed by using a magnetic stirrer, overhead stirrer, Speedmixer™ or similar mixing techniques.
Above experiment was repeated with a native γ-CD CAVAMAX® W8, which was not modified with silylation.
Silylated β-cyclodextrin CH77 with low number of silyl groups (7.95 TMS and 3.23 VDMS groups on average) was evaluated to check the solubility in DM 5 at 10 wt. %.

[3] = Thermogravimetric analysis (TGA) of evaporation of active, pure versus silyl-CD complex; type: physicochemical
Excerpt: Complex formation provides advantage for practical use of these guest molecules, many of which are pharmaceutical or cosmetic actives. For example, complexation slows down the evaporation of actives making the actives last longer. This is confirmed by Thermogravimetric analysis (TGA). Thermogravimetric analysis results for pure geraniol and its 1:1 complex with trimethylsilyl-β-cyclodextrin CH62 are shown in FIG. 4.
The complex with TMS-β-CD CH62 contains approximately 6 wt. % Geraniol. […] Thus, complexation with silyl-CD slows down loss of geraniol.
In FIG. 5 TGA thermograms show similar observations for complexation between a silyl-CD MG 15 and alpha-pinene 1:1 compared with pure alpha-pinene.
Pure pinene completely evaporates by 140° C., but it takes up to approximately 200° C. for the pinene to completely evaporate from the complex.

[4] = Release of geraniol from cured elastomer, weight loss in oven at 60° C.; type: physicochemical
Description: A cured elastomer/CD/geraniol sample (VP141-2-1) containing 10:1 mole ratio of geraniol to CD was prepared by using the following procedure: Trimethylsilyl-β-cyclodextrin CH62 (1.41 g, 0.59 mmol) and geraniol (0.90 g, 5.9 mmol) were added to a plastic cup and mixed using a Speedmixer™ for 2 min at 2000 rpm (mixing was repeated 2-3 times). The mixture appeared almost homogeneous. SiH terminated linear silicone of approximate formula MHD220MH and approximate viscosity 1000 mPa·s (13.95 g), SiH terminated and pendant SiH containing silicone of approximate formula MHD95.5DH9.6MH and having an approximate viscosity of 165 mPa·s (0.71 g), vinyl terminated linear silicone of approximate viscosity 1000 mPa·s (22.31 g) and platinum catalyst solution (0.078 g) were added to the cup and mixed using Speedmixer™ for 2 min at 2000 rpm (x 3-4 times). The resulted clear and colorless mixture was left in the tightly closed cup for 24-36 h to cure at room temperature to get a cured elastomer sample.
Then, vinyl terminated linear silicone of approximate viscosity 1000 mPa·s(23.09 g) and platinum catalyst solution (0.075 g) were added to the cup and mixed using Speedmixer™ for 2 min at 2000 rpm (mixing was repeated 2-3 times). The resultant clear, colorless mixture was left in the tightly closed cup for 24-36 h to cure at room temperature to get a cured elastomer sample. […]

Compound	appearance of cured elastomer sample [1]	temperature at which evaporation (weight loss) starts [3]	temperature at which evaporation is complete [3]	other results
OC[C@H]1O[C@@H]2O[C@H]3[C@H](O)[C@@H](O)[C@@H](O[C@H]4[C@H](O)[C@@H](O)[C@@H](O[C@H]5[C@H](O)[C@@H](O)[C@@H](O[C@H]6[C@H](O)[C@@H](O)[C@@H](O[C@H]7[C@H](O)[C@@H](O)[C@@H](O[C@H]8[C@H](O)[C@@H](O)[C@@H](O[C@H]1[C@H](O)[C@H]2O)O[C@@H]8CO)O[C@@H]7CO)O[C@@H]6CO)O[C@@H]5CO)O[C@@H]4CO)O[C@@H]3CO [CAVAMAX® W7, β-cyclodextrin]	heterogeneous, opaque, with large domain separations			
OC[C@H]1O[C@@H]2O[C@H]3[C@H](O)[C@@H](O)[C@@H](O[C@H]4[C@H](O)[C@@H](O)[C@@H](O[C@H]5[C@H](O)[C@@H](O)[C@@H](O[C@H]6[C@H](O)[C@@H](O)[C@@H](O[C@H]7[C@H](O)[C@@H](O)[C@@H](O[C@H]8[C@H](O)[C@@H](O)[C@@H](O[C@H]9[C@H](O)[C@@H](O)[C@@H](O[C@H]1[C@H](O)[C@H]2O)O[C@@H]9CO)O[C@@H]8CO)O[C@@H]7CO)O[C@@H]6CO)O[C@@H]5CO)O[C@@H]4CO)O[C@@H]3CO [CAVAMAX® W8, γ-cyclodextrin]				solubility in DM 5 (appearance of mixture) [2]: heterogeneous and opaque, with gross phase separation
CC(C)=CCC/C(C)=C/CO [Geraniol, geraniol]		approximately 75 °C	approximately 225 °C	time to complete release of geraniol [4]: a few hours
COC[C@H]1O[C@@H]2O[C@H]3[C@H](OC)[C@@H](OC)[C@@H](O[C@H]4[C@H](OC)[C@@H](OC)[C@@H](O[C@H]5[C@H](OC)[C@@H](OC)[C@@H](O[C@H]6[C@H](OC)[C@@H](OC)[C@@H](O[C@H]7[C@H](OC)[C@@H](OC)[C@@H](O[C@H]8[C@H](OC)[C@@H](OC)[C@@H](O[C@H]1[C@H](OC)[C@H]2OC)O[C@@H]8COC)O[C@@H]7COC)O[C@@H]6COC)O[C@@H]5COC)O[C@@H]4COC)O[C@@H]3COC [permethylated β-cyclodextrin]	heterogeneous, opaque, with large domain separations			solubility in DM 5 (appearance of mixture) ([2]; 10 wt. % mixture in BELSIL DM 5 (polydimethylsiloxane, 5 mPa·s), vortex mixer): heterogeneous and opaque
CC1=CCC2CC1C2(C)C (stereo not drawn) [pinene, alpha-pinene]		< 30 °C	≤ 140 °C	
